In patent US8192717B2, “Composition for diagnosing amyloid-related diseases” (Nagasaki University, priority 2004, dated 2012):

Experiment: Radioactivity distribution in mouse body after intravenous administration of radioiodine labeled forms
Conditions: mouse, intravenous administration, mean (SD) of 3 to 5 mice
Procedure: Thereafter, 100 μl (0.5 to 1 μCi) of each labeled form was intravenously administered to each group consisting of three to five 5-week-old ddY male mice (25 to 30 g). 2, 10, 30, and 60 minutes after the intravenous administration, such mice were decapitated, and blood was collected. Thereafter, organs were excised, and the weight and radioactivity thereof were then measured.

Distribution of radioactivity, Blood (2 min after administration) | Distribution of radioactivity, Blood (10 min after administration) | Distribution of radioactivity, Blood (30 min after administration) | Distribution of radioactivity, Blood (60 min after administration) | Distribution of radioactivity, Brain (2 min after administration) | Distribution of radioactivity, Brain (10 min after administration) | Distribution of radioactivity, Brain (30 min after administration) | Distribution of radioactivity, Brain (60 min after administration) | Distribution of radioactivity, Heart (2 min after administration) | Distribution of radioactivity, Heart (10 min after administration) | Distribution of radioactivity, Heart (30 min after administration) | Distribution of radioactivity, Heart (60 min after administration) | Distribution of radioactivity, Intestine (2 min after administration) | Distribution of radioactivity, Intestine (10 min after administration) | Distribution of radioactivity, Intestine (30 min after administration) | Distribution of radioactivity, Intestine (60 min after administration) | Distribution of radioactivity, Kidney (2 min after administration) | Distribution of radioactivity, Kidney (10 min after administration) | Distribution of radioactivity, Kidney (30 min after administration) | Distribution of radioactivity, Kidney (60 min after administration) | SMILES | also measured
1.87 (0.21) % ID/g | 1.19 (0.17) % ID/g | 0.40 (0.01) % ID/g | 0.23 (0.09) % ID/g | 4.00 (0.18) % ID/g | 2.36 (0.33) % ID/g | 0.51 (0.07) % ID/g | 0.17 (0.05) % ID/g | 4.98 (0.41) % ID/g | 2.25 (0.40) % ID/g | 0.84 (0.14) % ID/g | 0.47 (0.22) % ID/g | 3.52 (0.29) % ID/g | 14.39 (0.80) % ID/g | 22.51 (1.11) % ID/g | 30.05 (3.61) % ID/g | 7.99 (1.08) % ID/g | 6.30 (1.02) % ID/g | 4.51 (1.59) % ID/g | 1.46 (1.12) % ID/g | COc1ccc(-c2cc(=O)c3cc([125I])ccc3o2)cc1 [[125I]Compound 19] | Distribution of radioactivity, Liver (2 min after administration): 8.96 (1.48) % ID/g; Distribution of radioactivity, Liver (10 min after administration): 9.01 (0.97) % ID/g; Distribution of radioactivity, Liver (30 min after administration): 3.75 (0.47) % ID/g; Distribution of radioactivity, Liver (60 min after administration): 1.88 (0.61) % ID/g; Distribution of radioactivity, Spleen (2 min after administration): 2.70 (0.08) % ID/g; Distribution of radioactivity, Spleen (10 min after administration): 1.38 (0.37) % ID/g; Distribution of radioactivity, Spleen (30 min after administration): 0.55 (0.30) % ID/g; Distribution of radioactivity, Spleen (60 min after administration): 3.67 (5.89) % ID/g
4.90 (0.52) % ID/g | 3.80 (0.91) % ID/g | 1.84 (0.31) % ID/g | 1.15 (0.44) % ID/g | 2.52 (0.20) % ID/g | 1.28 (0.17) % ID/g | 0.40 (0.11) % ID/g | 0.35 (0.05) % ID/g | 5.58 (0.99) % ID/g | 2.88 (1.02) % ID/g | 1.44 (0.34) % ID/g | 1.38 (0.34) % ID/g | 2.50 (0.31) % ID/g | 10.52 (1.82) % ID/g | 20.60 (6.13) % ID/g | 29.31 (3.26) % ID/g | 11.99 (3.60) % ID/g | 9.16 (2.76) % ID/g | 5.00 (2.27) % ID/g | 4.31 (0.81) % ID/g | COc1cc(/C=C/C(=O)c2cccc([125I])c2)ccc1O [[125I]Compound 31] | Distribution of radioactivity, Liver (2 min after administration): 15.71 (1.27) % ID/g; Distribution of radioactivity, Liver (10 min after administration): 18.55 (2.68) % ID/g; Distribution of radioactivity, Liver (30 min after administration): 7.67 (1.68) % ID/g; Distribution of radioactivity, Liver (60 min after administration): 4.05 (0.61) % ID/g; Distribution of radioactivity, Spleen (2 min after administration): 2.57 (0.42) % ID/g; Distribution of radioactivity, Spleen (10 min after administration): 1.80 (0.30) % ID/g; Distribution of radioactivity, Spleen (30 min after administration): 1.03 (0.04) % ID/g; Distribution of radioactivity, Spleen (60 min after administration): 0.88 (0.15) % ID/g
1.87 (0.18) % ID/g | 1.07 (0.08) % ID/g | 1.20 (0.15) % ID/g | 1.15 (0.16) % ID/g | 3.22 (0.15) % ID/g | 3.61 (0.60) % ID/g | 1.89 (0.21) % ID/g | 0.99 (0.10) % ID/g | 5.63 (0.80) % ID/g | 2.47 (0.14) % ID/g | 1.69 (0.06) % ID/g | 1.07 (0.17) % ID/g | 2.24 (0.24) % ID/g | 6.56 (0.83) % ID/g | 12.97 (1.15) % ID/g | 18.64 (2.05) % ID/g | 8.33 (1.47) % ID/g | 4.31 (0.28) % ID/g | 3.40 (0.31) % ID/g | 2.32 (0.45) % ID/g | CN(C)c1ccc(-c2cc(=O)c3cc([125I])ccc3o2)cc1 [[125I]Compound 11] | Distribution of radioactivity, Liver (2 min after administration): 15.41 (0.98) % ID/g; Distribution of radioactivity, Liver (10 min after administration): 21.85 (2.14) % ID/g; Distribution of radioactivity, Liver (30 min after administration): 15.71 (0.96) % ID/g; Distribution of radioactivity, Liver (60 min after administration): 12.40 (2.38) % ID/g; Distribution of radioactivity, Spleen (2 min after administration): 2.72 (0.20) % ID/g; Distribution of radioactivity, Spleen (10 min after administration): 1.92 (0.33) % ID/g; Distribution of radioactivity, Spleen (30 min after administration): 1.58 (0.31) % ID/g; Distribution of radioactivity, Spleen (60 min after administration): 1.18 (0.17) % ID/g
2.77 (0.43) % ID/g | 1.58 (0.18) % ID/g | 0.66 (0.03) % ID/g | 0.20 (0.02) % ID/g | 3.31 (0.32) % ID/g | 1.90 (0.07) % ID/g | 0.52 (0.03) % ID/g | 0.08 (0.02) % ID/g | 5.51 (0.71) % ID/g | 1.60 (0.18) % ID/g | 0.53 (0.04) % ID/g | 0.12 (0.02) % ID/g | 3.12 (0.37) % ID/g | 11.26 (0.63) % ID/g | 22.01 (1.34) % ID/g | 27.28 (0.48) % ID/g | 14.79 (2.59) % ID/g | 15.11 (2.00) % ID/g | 6.45 (0.84) % ID/g | 1.66 (0.62) % ID/g | O=c1cc(-c2ccc(O)cc2)oc2ccc([125I])cc12 [[125I]Compound 20] | Distribution of radioactivity, Liver (2 min after administration): 9.77 (1.89) % ID/g; Distribution of radioactivity, Liver (10 min after administration): 8.24 (0.50) % ID/g; Distribution of radioactivity, Liver (30 min after administration): 6.80 (0.86) % ID/g; Distribution of radioactivity, Liver (60 min after administration): 4.78 (1.09) % ID/g; Distribution of radioactivity, Spleen (2 min after administration): 3.92 (1.18) % ID/g; Distribution of radioactivity, Spleen (10 min after administration): 1.55 (0.15) % ID/g; Distribution of radioactivity, Spleen (30 min after administration): 0.56 (0.13) % ID/g; Distribution of radioactivity, Spleen (60 min after administration): 0.17 (0.06) % ID/g
